For data set [1] the following is noted: AD clinical trials (refs 27, 28, 34, 35); cited from earlier work.
Data set [2] deals with LPS-challenged mice. Kind of data set: Survival rescue after lethal dose of LPS. It is filed as in vivo, C57BL/6 mice.
Data set [3] relates to LPS-challenged mice. The note with it: mice without LPS treatment, MK-8931 50 mg/kg oral.
Data set [4] concerns LPS-challenged mice. Kind of data set: H&E histology, tissue injury score after LPS. The note with it: LPS only or LPS plus MK-8931.
Setting [5] is: MK-8931 plus LPS versus LPS only.

Here are results for 3 molecules from patent publication US20230302009A1, “BACE1 INHIBITOR TREATMENT FOR S[…] STORM” (priority 2020, published 2023).

As for `C[C@@]1(c2nc(NC(=O)c3ncc(C(F)(F)F)cc3Cl)ccc2F)CO[C@@](C)(C(F)(F)F)C(N)=N1` [CNP50], the tolerability in patients result in data set [1] is reported as “well-tolerated”.
Regarding `CC#Cc1cncc(-c2ccc3c(c2)C2(N=C(C)C(N)=N2)C2(CCC(OC)CC2)C3)c1` (stereo not drawn) [AZD3293], the tolerability in patients entry in data set [1] is reported as “well-tolerated”.
Consider `CN1C(N)=N[C@](C)(c2cc(NC(=O)c3ccc(F)cn3)ccc2F)CS1(=O)=O` [MK-8931], for which the mice died in data set [2] (LPS 15 mg/kg i.p. plus MK-8931 50 mg/kg oral, 3 of 14 mice, between 20 to 96 hours after LPS) is 21.4%. For the same molecule, in data set [2] (LPS 15 mg/kg i.p. plus MK-8931 50 mg/kg oral, 11 of the 14 mice), the mice survived is reported as 78.6%. Besides, in data set [2] (setting [5]), the increase of survival came to 367% and the “reduction of mortality rate” value amounted to 3.7 fold. For the same molecule, the “plasma levels of cytokines/chemokines, MK-8931 alone” value in data set [3] is on record as “did not affect”. The tolerability in patients entry in data set [1] is “safe oral drug and well-tolerated”. In addition, in data set [4], the “tissue injury in spleen and liver” value is “No significant tissue injury”.
